Values after ≈ are worked out from the molar mass of the structure shown. Active and inactive are the calls of the source. The rule behind the calls is not given here.
Tests used:
[1] = Cytotoxicity against african green monkey CV1 cells; type: cell-based; conditions: Chlorocebus aethiops, CV-1
Cowpox virus = assay: Antiviral activity against Cowpox virus; type: functional, organism-based
Measles morbillivirus [2] = assay: Antiviral activity against Measles virus; type: functional, organism-based
Cytomegalovirus = assay: Antiviral activity against Cytomegalovirus; type: functional, organism-based
Measles morbillivirus [3] = assay: Antiviral activity against Measles virus by neutral red assay; type: functional, organism-based
Vaccinia virus = assay: Antiviral activity against Vaccinia virus; type: functional, organism-based; conditions: Orthopoxvirus vaccinia

SMILES: Nc1ncnc2c1ncn2[C@@H]1C[C@H](F)[C@@H](O)[C@H]1O
- IC50 [1]: 21 mg/L (≈ 82.9 µM)
- Activity (Cowpox virus): inactive
- IC50 (Measles morbillivirus [2]): 14 mg/L (≈ 55.3 µM)
- Activity (Cytomegalovirus): inactive
- IC50 (Measles morbillivirus [3]): 1.2 mg/L (≈ 4.74 µM)
- Activity (Vaccinia virus): inactive

SMILES: Nc1ncnc2c1ncn2[C@@H]1CC(F)(F)[C@@H](O)[C@H]1O
- Activity (Cowpox virus): Active
- Activity (Cytomegalovirus): Active
- Activity (Vaccinia virus): Active
